In paper PMC4421842 (Nature Communications, 2015):
≈ marks a conversion by molar mass, not a printed value. Where “and” joins values, the source holds several entries; their conditions need not be identical. Identical values can stand only once. Entries after “also recorded” stand apart in the source; their conditions may differ. Like-named read-outs stand apart in the source and are kept apart here.

Legend:
[1] = system: WT S. aureus (ATCC 29213, WT); test: microbe, parasite or virus in culture; type: cell-based; settings: WT GyrA and WT ParC, three independent replicates
MRSA clinical isolates = test: microbe, parasite or virus in culture; type: cell-based, S. aureus; settings: for MIC: Staphylococcus aureus, MRSA
Description: (§1) MRSA and P. aeruginosa isolates were from Cubist Pharmaceuticals (Lexington, MA). VRE isolates were from a previously published collection. E. coli strains were obtained either from ATCC or Professor Cari Vanderpool (UIUC). A. baumannii isolates were obtained from Dr John Quale[51].
Susceptibility testing was performed in triplicate, using the microdilution broth method as outlined by the Clinical and Laboratory Standards Institute[52]. Mueller Hinton (MH) broth was used.

E. faecalis = test: microbe, parasite or virus in culture; type: cell-based; settings: E. faecalis
E. faecium = test: microbe, parasite or virus in culture; type: cell-based; settings: Enterococcus faecium, E. faecium
Ent. Spp. = test: MIC, microdilution broth, Ent. Spp. VRE clinical isolate; type: cell-based; settings: Enterococcus, C28036, gyrA Ser83Ile, parC Ser80Ile
Description: as §1
(§2) Mueller Hinton (MH) broth was used.

VRE clinical isolates = test: MIC, VRE clinical isolates panel (summary by GyrA mutation); type: cell-based, Enterococcus; settings: for MIC: Enterococcus, VRE
Description: as §1, §2

E. coli = test: microbe, parasite or virus in culture; type: cell-based; settings: Escherichia coli, ATCC25922, E. coli ATCC 25922; gyrA none, parC none
Description: as §1, §2

P. aeruginosa = test: MIC, microdilution broth, P. aeruginosa; type: cell-based
Description: as §1, §2

A. baumannii = test: MIC, microdilution broth, A. baumannii; type: cell-based
Description: as §1, §2

WT E. coli DNA gyrase = molecular target: T1, WT E. coli DNA gyrase (Escherichia coli, UniProt P0AES4+P0AES6); type: biochemical; settings: DNA cleavage assay
T1 construct: His tag (pTRCHisA vector; purified on Ni-NTA); made in house; host or cells: E. coli One Shot BL21 Star (DE3)

S83R E. coli DNA gyrase = molecular target: T2, S83R E. coli DNA gyrase (Escherichia coli, UniProt P0AES4+P0AES6, S83R); type: biochemical; settings: DNA cleavage assay
T2 construct: His tag (pTRCHisA vector; purified on Ni-NTA); made in house; host or cells: E. coli One Shot BL21 Star (DE3)

[2] = system: resistant strains of ATCC 29213; test: microbe, parasite or virus in culture; type: cell-based, S. aureus; settings: Staphylococcus aureus
S. aureus (ATCC 29213) = test: Resistant mutant generation (resistance frequency); type: cell-based; settings: development of DNM resistance in high-level CIP-resistant strains
[3] = Pharmacokinetic assessment; type: in vivo, C57BL/6 mice; settings: for Cmax: female, C57BL/6, mouse
Description: (§3) The animal studies (PK, in-vivo toxicity and in-vivo efficacy) were carried out in strict accordance with the recommendations in the Guide for the Care and Use of Laboratory Animals of the National Institutes of Health. […] In these studies, 10- to 12-week-old female C57BL/6 mice purchased from Charles River were used. DNM, DNM-2 and DNM-3 were formulated as slurries at 8.3 mg ml^−1 in 25% Cremophor RH40/water (v/v). Before beginning the pharmacokinetic assessment, mice were first tested for their ability to tolerate the DNM, DNM-2 and DNM-3 at 50 mg kg^−1 (p.o.). […] At specified time points, mice were killed and blood was collected, centrifuged and the serum was frozen at −80 °C until analysis. The proteins in a 50-μl aliquot of serum were precipitated by the addition of 50 μl of acetonitrile and the sample was centrifuged to remove the proteins. Serum concentrations of DNM, DNM-2 and DNM-3 were determined by HPLC. PK parameters were determined using GraphPad Prism Version 5.00 for Windows.

[4] = Tolerability in mice (maximal tolerated dose); type: in vivo
Description: as §3

physchem = settings: pH 7.4
Description: Three independent replicates of each compound were performed.

SMILES: Cc1cc(=O)n(C)c2c3c4c(cc12)c(C)cc(=O)n4CO3 [DNM, deoxynybomycin]
- MIC against S. aureus 29213 ([1]; ATCC 29213): modest activity and 2 μg ml^−1
- MIC ([1]; Staphylococcus aureus, ATCC29213, ATCC 29213, read-out: MIC against S. aureus 29213): > 1 µg/mL
- MIC (MRSA clinical isolates; strain SAU.1118, read-out: MIC): 1 µg/mL (≈ 3.54 µM)
- MIC (MRSA clinical isolates; strain SAU.2996, read-out: MIC): 0.25 µg/mL (≈ 0.886 µM)
- MIC (MRSA clinical isolates; strain SAU.3017, read-out: MIC): 1 µg/mL (≈ 3.54 µM)
- MIC (MRSA clinical isolates; strain SAU.3021, read-out: MIC): 0.031 µg/mL (≈ 0.11 µM)
- MIC (MRSA clinical isolates; strain SAU.3025, read-out: MIC): 0.031 µg/mL (≈ 0.11 µM)
- MIC (MRSA clinical isolates; strain SAU.419, read-out: MIC): 0.125 µg/mL (≈ 0.443 µM)
- MIC (MRSA clinical isolates; strain SAU.42, read-out: MIC): 1 µg/mL (≈ 3.54 µM)
- MIC (MRSA clinical isolates; strain SAU.446, read-out: MIC): 0.25 µg/mL (≈ 0.886 µM)
- MIC (MRSA clinical isolates; strain SAU.447): 0.063 µg/mL (≈ 0.223 µM)
- MIC (MRSA clinical isolates; strain SAU.492, gyrA Ser84Leu, parC Ser80Tyr): 0.063 µg/mL (≈ 0.223 µM)
- MIC (MRSA clinical isolates; strain SAU.493, gyrA Ser84Leu, parC Ser80Phe): 0.063 µg/mL (≈ 0.223 µM)
- MIC (MRSA clinical isolates; strain SAU.494, gyrA Ser84Leu, parC Ser80Phe): 0.063 µg/mL (≈ 0.223 µM)
- MIC (MRSA clinical isolates; strain SAU.495, gyrA Ser84Leu, parC Ser80Phe): 0.063 µg/mL (≈ 0.223 µM)
- MIC (MRSA clinical isolates; strain SAU.496, gyrA Ser84Leu, parC Ser80Phe): 0.063 µg/mL (≈ 0.223 µM)
- MIC (MRSA clinical isolates; strain SAU.555, read-out: MIC): 0.125 µg/mL (≈ 0.443 µM)
- MIC (MRSA clinical isolates; strain SAU.708, gyrA Ser84Leu, parC Ser80Phe Glu84Lys): 0.063 µg/mL (≈ 0.223 µM)
- MIC (MRSA clinical isolates; strain SAU.709, gyrA Ser84Leu, parC Ser80Tyr Glu84Gly): 0.063 µg/mL (≈ 0.223 µM)
- MIC (MRSA clinical isolates; strain SAU.846, read-out: MIC): 0.031 µg/mL (≈ 0.11 µM)
- Sensitivity of MRSA clinical isolates (MRSA clinical isolates; panel of MRSA clinical isolates (n=21)): sensitive
- MIC (E. faecalis; ATCC 29212, gyrA WT, parC WT): > 1 µg/mL
- MIC (E. faecalis; Enterococcus faecalis, ATCC19433, ATCC 19433, gyrA WT, parC WT): > 1 µg/mL
- MIC (E. faecalis; Enterococcus faecalis, ATCC29212, ATCC 29212, gyrA WT, parC WT): > 1 µg/mL
- MIC (E. faecalis; Enterococcus faecalis, S206, gyrA Ser83 Arg, parC Ser80Ile): 1 µg/mL (≈ 3.54 µM)
- MIC (E. faecium; C21190, gyrA Ser83 Arg, parC Ser80Ile): > 1 µg/mL
- MIC (E. faecium; C27282, gyrA Ser83 Arg, parC Ser80Arg): > 1 µg/mL
- MIC (E. faecium; S34, gyrA Ser83Ile, parC Ser80 Arg): 1 µg/mL (≈ 3.54 µM)
- MIC (E. faecium; S226, gyrA Ser83Ile, parC Ser80Ile): 0.25 µg/mL (≈ 0.886 µM)
- MIC (E. faecium; S235, gyrA Ser83Ile, parC Ser80Ile): 0.125 µg/mL (≈ 0.443 µM)
- MIC (E. faecium; S344, gyrA Ser83Ile, parC Ser80Ile): 0.25 µg/mL (≈ 0.886 µM)
- MIC (E. faecium; S557, gyrA Ser83Ile, parC Ser80Ile): 0.25 µg/mL (≈ 0.886 µM)
- MIC (E. faecium; U63, gyrA Ser83 Arg, parC Ser80Ile): 1 µg/mL (≈ 3.54 µM)
- MIC (E. faecium; U275, gyrA Ser83Cys Glu87Gly, parC Ser80Ile): 1 µg/mL (≈ 3.54 µM)
- MIC (E. faecium; U464, gyrA Ser83 Arg, parC Ser80Ile): 1 µg/mL (≈ 3.54 µM)
- MIC (E. faecium; U503, gyrA Ser83 Arg, parC Ser80Ile): > 1 µg/mL
- MIC (E. faecium; U563, gyrA Ser83 Arg, parC Ser80Ile): > 1 µg/mL
- MIC (Ent. Spp.): 0.25 µg/mL (≈ 0.886 µM)
- MIC (VRE clinical isolates; VRE harbouring the S83I mutation in GyrA): 0.125 to 1 µg/mL (≈ 0.443 to 3.54 µM)
- MIC (VRE clinical isolates; VRE with the S83R mutation in GyrA): ≥ 1 µg/mL
- Sensitivity of VRE clinical isolates (VRE clinical isolates; panel of VRE clinical isolates (n=22)): sensitive
- MIC (E. coli): > 4 µg/mL
- activity against wild-type (WT) or FQR P. aeruginosa (P. aeruginosa): no detectable activity
- MIC (P. aeruginosa; PA1586 (CIP resistant clinical isolate)): > 4 µg/mL
- MIC (P. aeruginosa; Pseudomonas aeruginosa, P. aeruginosa PAO1, read-out: MIC): > 4 µg/mL
- MIC (P. aeruginosa; Pseudomonas aeruginosa, read-out: MIC): > 4 µg/mL
- activity against wild-type (WT) or FQR Acinetobacter baumannii (A. baumannii): no detectable activity
- MIC (A. baumannii; A. baumannii KB304, gyrA S83L): > 4 µg/mL
- MIC (A. baumannii; Acinetobacter baumannii): > 4 µg/mL
- MIC (A. baumannii; Acinetobacter baumannii, ATCC19606, A. baumannii ATCC 19606, read-out: MIC): > 4 µg/mL
- inhibition of WT DNA gyrase (increase in L or OC DNA) (WT E. coli DNA gyrase): poor inhibitors of WT DNA gyrase
- inhibition of S83R DNA gyrase (S83R E. coli DNA gyrase): buildup of OC DNA similar to that seen with S83L DNA gyrase only at a slightly higher concentration or longer time points
- MIC ([2]; ATCC29213, high-level CIP-resistant strains, second step, S84L mutation in GyrA): 0.03 to 0.06 µg/mL (≈ 0.106 to 0.213 µM)
- MIC ([2]; ATCC29213, low-level CIP-resistant strains, first step, WT gyrA, mutation in ParC (for example E84K or S80F)): > 1 µg/mL
- MIC ([2]; ATCC29213, resistance cycle strain, WT gyrA, WT parC (Fig. 4a)): > 1 µg/mL
- resistance frequencies (S. aureus (ATCC 29213)): 1 × 10^−10 to 7 × 10^−10
- Cmax ([3]; C57/BL6 mice, 50 mg kg-1 oral gavage, serum, read-out: Cmax): < 60 ng/mL
- Cmax ([3]; mice, 50 mg kg^−1 oral dose, serum, read-out: Cmax (peak serum concentration)): < 200 nM
- oral bioavailability / serum exposure ([3]; mice, 50 mg kg^−1 oral dose): very low serum exposure; also recorded: not absorbed to any appreciable degree
- Cmax (peak serum concentration) ([3]; mice, 50 mg kg^−1 oral dose, serum): < 60 ng/mL
- tolerability ([4]; increasing doses, highest dose evaluated 50 mg kg^−1 by oral gavage): well tolerated up to the highest dose evaluated
- maximal tolerated dose ([4]; oral gavage): > 50 mg/kg
- solubility at 1 h (physchem): 9 µM (≈ 2.54 µg/mL)
